In the kinase profiling compilation of Christmann-Franck et al. (2016):

Key:
Assay in all cases: KINOMEscan competition binding
Details in all cases: compound 0.5 µM
AXL (human) = AXL (human) (UniProt P30530)
BRSK2 (human) = BRSK2 (human) (UniProt Q8IWQ3)
CDK14 (human) = CDK14 (human) (UniProt O94921)
CDK4 CCND1 (human) = CDK4 CCND1 (human) (UniProt P11802+P24385)
CLK1 (human) = CLK1 (human) (UniProt P49759)
CLK3 (human) = CLK3 (human) (UniProt P49761)
CLK4 (human) = CLK4 (human) (UniProt Q9HAZ1)
CPK1 (P.falciparum) = system: CPK1 (P.falciparum)
CSNK1E (human) = CSNK1E (human) (UniProt P49674)
Chain of CSNK1E (human) (P49674 whole entry, looked up): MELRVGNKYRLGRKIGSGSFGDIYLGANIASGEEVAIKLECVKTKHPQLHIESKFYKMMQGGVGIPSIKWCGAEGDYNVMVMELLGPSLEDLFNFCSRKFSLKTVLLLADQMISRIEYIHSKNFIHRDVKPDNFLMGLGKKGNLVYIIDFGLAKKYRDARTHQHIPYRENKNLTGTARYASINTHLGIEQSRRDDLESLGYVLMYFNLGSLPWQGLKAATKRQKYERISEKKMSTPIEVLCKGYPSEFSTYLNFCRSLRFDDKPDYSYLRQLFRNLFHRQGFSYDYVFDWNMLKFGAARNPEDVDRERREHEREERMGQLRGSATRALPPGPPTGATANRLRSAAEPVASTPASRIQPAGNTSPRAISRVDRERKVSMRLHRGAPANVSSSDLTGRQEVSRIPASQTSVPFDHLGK

EPHA3 (human) = EPHA3 (human) (UniProt P29320)
EPHA8 (human) = EPHA8 (human) (UniProt P29322)
EPHB4 (human) = EPHB4 (human) (UniProt P54760)
ERN1 (human) = ERN1 (human) (UniProt O75460)
[1] = system: FLT3 (human), P36888 [D835H]
IRAK3 (human) = IRAK3 (human) (UniProt Q9Y616)
KIT (human) = KIT (human) (UniProt P10721)
LIMK1 (human) = LIMK1 (human) (UniProt P53667)
MAP2K1 (human) = MAP2K1 (human) (UniProt Q02750)
MAP2K6 (human) = MAP2K6 (human) (UniProt P52564)
MAP3K10 (human) = MAP3K10 (human) (UniProt Q02779)
MAP3K11 (human) = MAP3K11 (human) (UniProt Q16584)
MAP3K4 (human) = MAP3K4 (human) (UniProt Q9Y6R4)
MAP4K1 (human) = MAP4K1 (human) (UniProt Q92918)
MST1R (human) = MST1R (human) (UniProt Q04912)
Chain of MST1R (human) (Q04912 whole entry, looked up): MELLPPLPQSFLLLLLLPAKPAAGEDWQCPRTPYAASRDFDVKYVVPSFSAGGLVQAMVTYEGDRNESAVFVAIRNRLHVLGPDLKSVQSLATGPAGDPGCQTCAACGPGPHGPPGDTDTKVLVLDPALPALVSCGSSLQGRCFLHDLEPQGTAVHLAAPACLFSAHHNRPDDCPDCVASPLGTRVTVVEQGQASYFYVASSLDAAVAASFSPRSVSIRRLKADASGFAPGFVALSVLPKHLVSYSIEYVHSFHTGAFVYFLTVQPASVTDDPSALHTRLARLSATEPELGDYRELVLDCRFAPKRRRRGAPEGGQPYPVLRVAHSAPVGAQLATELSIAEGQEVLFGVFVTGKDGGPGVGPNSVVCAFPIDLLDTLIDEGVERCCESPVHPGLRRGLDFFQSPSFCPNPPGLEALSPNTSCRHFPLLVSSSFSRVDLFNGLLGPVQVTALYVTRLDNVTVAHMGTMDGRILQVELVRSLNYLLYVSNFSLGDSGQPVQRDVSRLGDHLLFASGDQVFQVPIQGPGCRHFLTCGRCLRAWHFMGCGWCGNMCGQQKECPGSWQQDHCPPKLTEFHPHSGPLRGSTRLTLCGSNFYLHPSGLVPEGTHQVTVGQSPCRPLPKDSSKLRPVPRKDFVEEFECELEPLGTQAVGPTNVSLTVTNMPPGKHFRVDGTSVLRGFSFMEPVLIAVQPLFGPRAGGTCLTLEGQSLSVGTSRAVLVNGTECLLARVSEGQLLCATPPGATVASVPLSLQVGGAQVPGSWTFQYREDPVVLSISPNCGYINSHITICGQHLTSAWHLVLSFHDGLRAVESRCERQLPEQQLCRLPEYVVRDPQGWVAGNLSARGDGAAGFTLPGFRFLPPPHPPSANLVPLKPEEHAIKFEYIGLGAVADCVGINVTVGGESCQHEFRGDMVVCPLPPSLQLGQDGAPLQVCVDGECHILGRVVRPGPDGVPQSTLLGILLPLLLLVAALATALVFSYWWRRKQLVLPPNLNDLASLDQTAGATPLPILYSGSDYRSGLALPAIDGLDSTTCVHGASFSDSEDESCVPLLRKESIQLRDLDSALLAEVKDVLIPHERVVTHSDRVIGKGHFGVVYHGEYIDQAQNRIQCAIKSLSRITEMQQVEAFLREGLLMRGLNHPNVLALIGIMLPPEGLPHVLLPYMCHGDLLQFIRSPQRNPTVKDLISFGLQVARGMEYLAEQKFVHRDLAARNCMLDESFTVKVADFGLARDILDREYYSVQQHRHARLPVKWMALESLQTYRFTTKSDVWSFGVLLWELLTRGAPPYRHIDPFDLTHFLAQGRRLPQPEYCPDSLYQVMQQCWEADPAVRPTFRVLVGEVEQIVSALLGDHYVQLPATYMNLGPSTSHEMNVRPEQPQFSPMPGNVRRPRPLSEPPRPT

NEK9 (human) = NEK9 (human) (UniProt Q8TD19)
NTRK3 (human) = NTRK3 (human) (UniProt Q16288)
PAK4 (human) = PAK4 (human) (UniProt O96013)
[2] = system: PIK3CA (human), P42336 [H1047Y]
Chain of PIK3CA (human), P42336 [H1047Y] (P42336 whole entry H1047Y, looked up): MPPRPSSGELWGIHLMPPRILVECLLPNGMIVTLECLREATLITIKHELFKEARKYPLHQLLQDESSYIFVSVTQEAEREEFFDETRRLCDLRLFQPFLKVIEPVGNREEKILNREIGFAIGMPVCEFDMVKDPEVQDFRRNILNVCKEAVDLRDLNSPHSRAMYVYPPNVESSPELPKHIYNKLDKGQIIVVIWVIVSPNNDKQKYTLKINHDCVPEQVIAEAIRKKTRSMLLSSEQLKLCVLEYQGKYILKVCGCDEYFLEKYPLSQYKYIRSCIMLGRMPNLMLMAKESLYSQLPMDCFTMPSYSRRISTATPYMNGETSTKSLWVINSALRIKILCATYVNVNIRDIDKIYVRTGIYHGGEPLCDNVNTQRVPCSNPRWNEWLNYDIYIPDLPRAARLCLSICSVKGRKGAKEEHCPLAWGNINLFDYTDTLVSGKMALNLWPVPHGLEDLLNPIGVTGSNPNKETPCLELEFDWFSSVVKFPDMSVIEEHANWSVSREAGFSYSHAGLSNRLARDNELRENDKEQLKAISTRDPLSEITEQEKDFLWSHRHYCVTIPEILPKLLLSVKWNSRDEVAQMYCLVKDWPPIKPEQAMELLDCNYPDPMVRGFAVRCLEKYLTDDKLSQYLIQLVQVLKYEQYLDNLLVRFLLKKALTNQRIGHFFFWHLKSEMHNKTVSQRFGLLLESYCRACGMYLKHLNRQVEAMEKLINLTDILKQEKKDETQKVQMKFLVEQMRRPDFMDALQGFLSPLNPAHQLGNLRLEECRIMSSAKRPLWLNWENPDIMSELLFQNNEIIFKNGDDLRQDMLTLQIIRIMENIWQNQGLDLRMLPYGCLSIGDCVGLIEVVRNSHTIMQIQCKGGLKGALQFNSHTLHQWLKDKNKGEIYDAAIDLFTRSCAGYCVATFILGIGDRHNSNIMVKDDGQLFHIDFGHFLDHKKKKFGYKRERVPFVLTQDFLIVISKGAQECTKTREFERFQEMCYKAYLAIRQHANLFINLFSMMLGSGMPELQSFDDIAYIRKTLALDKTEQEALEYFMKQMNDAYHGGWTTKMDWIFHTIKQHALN

PIM1 (human) = PIM1 (human) (UniProt P11309)
PLK4 (human) = PLK4 (human) (UniProt O00444)
Chain of PLK4 (human) (O00444 whole entry, looked up): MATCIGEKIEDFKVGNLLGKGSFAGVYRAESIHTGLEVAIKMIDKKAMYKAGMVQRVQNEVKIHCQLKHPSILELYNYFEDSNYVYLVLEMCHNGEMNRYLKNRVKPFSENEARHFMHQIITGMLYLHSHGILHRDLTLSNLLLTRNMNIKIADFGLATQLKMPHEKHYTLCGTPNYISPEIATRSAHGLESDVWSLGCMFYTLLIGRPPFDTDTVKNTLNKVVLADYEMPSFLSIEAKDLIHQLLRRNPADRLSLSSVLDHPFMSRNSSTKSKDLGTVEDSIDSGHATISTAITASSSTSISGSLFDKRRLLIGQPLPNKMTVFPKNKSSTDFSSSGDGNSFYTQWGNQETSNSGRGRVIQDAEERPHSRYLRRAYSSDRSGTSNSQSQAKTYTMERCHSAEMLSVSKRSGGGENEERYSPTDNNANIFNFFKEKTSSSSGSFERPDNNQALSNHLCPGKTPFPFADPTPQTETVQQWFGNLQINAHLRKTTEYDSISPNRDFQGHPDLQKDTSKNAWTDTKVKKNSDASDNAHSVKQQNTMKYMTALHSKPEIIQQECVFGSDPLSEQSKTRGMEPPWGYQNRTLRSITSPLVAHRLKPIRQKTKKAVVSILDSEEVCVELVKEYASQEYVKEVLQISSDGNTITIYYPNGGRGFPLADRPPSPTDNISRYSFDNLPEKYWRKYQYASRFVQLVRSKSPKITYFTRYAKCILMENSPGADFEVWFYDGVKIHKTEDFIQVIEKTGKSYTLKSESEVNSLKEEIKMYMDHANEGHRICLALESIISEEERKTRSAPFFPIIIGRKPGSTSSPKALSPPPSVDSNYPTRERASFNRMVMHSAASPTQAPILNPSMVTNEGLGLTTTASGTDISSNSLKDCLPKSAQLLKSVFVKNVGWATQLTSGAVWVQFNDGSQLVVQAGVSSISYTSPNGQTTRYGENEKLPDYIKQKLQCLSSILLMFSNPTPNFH

PRKCH (human) = PRKCH (human) (UniProt P24723)
RPS6KA2 KD1 (human) = RPS6KA2 KD1 (human) (UniProt Q15349)
SNRK (human) = SNRK (human) (UniProt Q9NRH2)
Chain of SNRK (human) (Q9NRH2 whole entry, looked up): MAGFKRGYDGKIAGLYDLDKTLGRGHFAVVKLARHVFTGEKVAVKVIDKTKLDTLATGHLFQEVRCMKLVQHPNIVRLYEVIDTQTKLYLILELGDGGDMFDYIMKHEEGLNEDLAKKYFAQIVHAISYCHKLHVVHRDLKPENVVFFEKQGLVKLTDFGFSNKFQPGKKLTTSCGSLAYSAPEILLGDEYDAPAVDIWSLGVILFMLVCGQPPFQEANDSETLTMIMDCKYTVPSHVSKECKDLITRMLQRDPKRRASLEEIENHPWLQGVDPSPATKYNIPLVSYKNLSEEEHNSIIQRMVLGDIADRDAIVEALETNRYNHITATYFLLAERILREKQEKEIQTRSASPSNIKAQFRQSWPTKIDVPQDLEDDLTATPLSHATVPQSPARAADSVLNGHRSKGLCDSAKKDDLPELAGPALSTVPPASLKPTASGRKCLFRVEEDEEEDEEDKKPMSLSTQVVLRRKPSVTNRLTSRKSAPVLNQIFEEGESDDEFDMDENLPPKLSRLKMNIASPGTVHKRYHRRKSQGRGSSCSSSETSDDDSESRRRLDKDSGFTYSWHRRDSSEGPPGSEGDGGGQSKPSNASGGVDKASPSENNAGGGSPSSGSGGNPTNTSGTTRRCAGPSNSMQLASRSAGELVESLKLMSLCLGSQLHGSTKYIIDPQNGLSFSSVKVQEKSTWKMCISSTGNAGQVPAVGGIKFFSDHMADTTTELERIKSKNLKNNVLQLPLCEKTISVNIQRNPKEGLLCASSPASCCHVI

SRC (human) = SRC (human) (UniProt P12931)
STK11 (human) = STK11 (human) (UniProt Q15831)
STK35 (human) = STK35 (human) (UniProt Q8TDR2)
STK39 (human) = STK39 (human) (UniProt Q9UEW8)
TLK1 (human) = TLK1 (human) (UniProt Q9UKI8)
TLK2 (human) = TLK2 (human) (UniProt Q86UE8)
TNIK (human) = TNIK (human) (UniProt Q9UKE5)
TNK1 (human) = TNK1 (human) (UniProt Q13470)
TSSK1B (human) = TSSK1B (human) (UniProt Q9BXA7)

Chain of CLK1 (human) (P49759 whole entry, looked up): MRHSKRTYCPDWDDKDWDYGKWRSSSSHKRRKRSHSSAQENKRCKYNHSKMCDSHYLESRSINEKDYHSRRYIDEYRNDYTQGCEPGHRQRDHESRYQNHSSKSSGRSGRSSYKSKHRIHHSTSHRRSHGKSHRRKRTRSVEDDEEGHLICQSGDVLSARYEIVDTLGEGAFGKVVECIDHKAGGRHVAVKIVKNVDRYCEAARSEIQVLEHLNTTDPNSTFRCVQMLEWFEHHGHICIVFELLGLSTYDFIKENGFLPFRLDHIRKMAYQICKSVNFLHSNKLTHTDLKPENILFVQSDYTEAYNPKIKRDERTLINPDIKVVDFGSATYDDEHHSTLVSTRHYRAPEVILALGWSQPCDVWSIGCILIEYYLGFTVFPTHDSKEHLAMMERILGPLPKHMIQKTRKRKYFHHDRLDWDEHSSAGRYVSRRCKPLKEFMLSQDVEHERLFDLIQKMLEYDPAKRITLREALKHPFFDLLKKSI

Cn1c2ccccc2c2c3c(c4c5ccccc5n(CCC#N)c4c21)CNC3=O
kinase still bound, per cent of control (AXL (human)): 72% | kinase still bound, per cent of control (BRSK2 (human)): 49% | kinase still bound, per cent of control (CDK14 (human)): 100% | kinase still bound, per cent of control (CDK4 CCND1 (human)): 57% | kinase still bound, per cent of control (CLK1 (human)): 16% | kinase still bound, per cent of control (CLK3 (human)): 94% | kinase still bound, per cent of control (CLK4 (human)): 6.1% | kinase still bound, per cent of control (CPK1 (P.falciparum)): 35% | kinase still bound, per cent of control (CSNK1E (human)): 100% | kinase still bound, per cent of control (EPHA3 (human)): 53% | kinase still bound, per cent of control (EPHA8 (human)): 90% | kinase still bound, per cent of control (EPHB4 (human)): 100% | kinase still bound, per cent of control (ERN1 (human)): 43% | kinase still bound, per cent of control [1]: 2.6% | kinase still bound, per cent of control (IRAK3 (human)): 12% | kinase still bound, per cent of control (KIT (human)): 81% | kinase still bound, per cent of control (LIMK1 (human)): 96% | kinase still bound, per cent of control (MAP2K1 (human)): 71% | kinase still bound, per cent of control (MAP2K6 (human)): 15% | kinase still bound, per cent of control (MAP3K10 (human)): 98% | kinase still bound, per cent of control (MAP3K11 (human)): 17% | kinase still bound, per cent of control (MAP3K4 (human)): 99% | kinase still bound, per cent of control (MAP4K1 (human)): 33% | kinase still bound, per cent of control (MST1R (human)): 100% | kinase still bound, per cent of control (NEK9 (human)): 100% | kinase still bound, per cent of control (NTRK3 (human)): 0.15% | kinase still bound, per cent of control (PAK4 (human)): 4% | kinase still bound, per cent of control [2]: 100% | kinase still bound, per cent of control (PIM1 (human)): 32% | kinase still bound, per cent of control (PLK4 (human)): 6.5% | kinase still bound, per cent of control (PRKCH (human)): 18% | kinase still bound, per cent of control (RPS6KA2 KD1 (human)): 5.4% | kinase still bound, per cent of control (SNRK (human)): 69% | kinase still bound, per cent of control (SRC (human)): 100% | kinase still bound, per cent of control (STK11 (human)): 4.4% | kinase still bound, per cent of control (STK35 (human)): 73% | kinase still bound, per cent of control (STK39 (human)): 76% | kinase still bound, per cent of control (TLK1 (human)): 83% | kinase still bound, per cent of control (TLK2 (human)): 88% | kinase still bound, per cent of control (TNIK (human)): 0.3% | kinase still bound, per cent of control (TNK1 (human)): 2% | kinase still bound, per cent of control (TSSK1B (human)): 82%
